# pKi: −log10 of the molar value.
# Molecular target: HPK full length, T165E S171E (Homo sapiens (Human), UniProt Q92918, S171E/T165E)
# Experiment: HPK1-FL HTRF enzymatic assay ("HTRF")
# Format: biochemical
# Details: ATP 1 mM, read-out: HPK1 Ki
# Outline: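 Full-length HPK1 (T165E/S171E) was preincubated 30 min with compound, then reacted 60 min with biotin-SLP-76 and 1 mM ATP. Phospho-SLP-76 was detected by HTRF (Eu-anti-pSLP76 antibody, SA-XL665) after a further 60 min.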
# Sequence of HPK full length, T165E S171E (Q92918 whole entry T165E/S171E, looked up): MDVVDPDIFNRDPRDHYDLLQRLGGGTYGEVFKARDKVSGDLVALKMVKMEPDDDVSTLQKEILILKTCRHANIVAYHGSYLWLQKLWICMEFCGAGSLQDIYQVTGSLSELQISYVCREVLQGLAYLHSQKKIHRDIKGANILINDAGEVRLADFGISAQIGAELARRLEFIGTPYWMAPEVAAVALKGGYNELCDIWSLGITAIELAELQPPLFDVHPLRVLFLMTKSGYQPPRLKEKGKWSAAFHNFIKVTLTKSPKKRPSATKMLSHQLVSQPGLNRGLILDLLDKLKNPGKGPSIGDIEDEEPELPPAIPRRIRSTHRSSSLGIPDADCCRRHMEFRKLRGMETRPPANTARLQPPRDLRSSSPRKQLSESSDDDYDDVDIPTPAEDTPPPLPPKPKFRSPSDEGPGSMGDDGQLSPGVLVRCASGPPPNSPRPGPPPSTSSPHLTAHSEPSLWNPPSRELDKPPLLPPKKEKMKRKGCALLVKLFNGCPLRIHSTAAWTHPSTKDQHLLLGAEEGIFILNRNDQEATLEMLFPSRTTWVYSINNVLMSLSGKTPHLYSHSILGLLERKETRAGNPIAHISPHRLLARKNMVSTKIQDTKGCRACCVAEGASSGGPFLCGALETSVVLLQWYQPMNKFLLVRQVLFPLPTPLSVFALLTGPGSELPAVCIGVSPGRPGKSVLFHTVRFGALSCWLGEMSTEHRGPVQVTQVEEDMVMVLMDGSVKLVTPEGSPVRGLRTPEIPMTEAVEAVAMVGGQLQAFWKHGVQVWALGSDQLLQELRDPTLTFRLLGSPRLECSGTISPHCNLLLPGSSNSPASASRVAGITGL
row,SMILES,pKi
1,"Cc1c(-c2cc3cc(NC(=O)O[C@H]4COC[C@@H]4F)ncc3c(N)c2F)cnc2c1NCCO2 (single isomer, unassigned) [Compound 477b]",10.77
2,"Cc1c(-c2cc3cc(NC(=O)O[C@H]4CCC[C@@H]4C#N)ncc3c(N)c2F)cnc2c1NCCO2 (single isomer, unassigned) [Compound 482b]",> 10.89
3,"Cc1c(-c2cc3cc(NC(=O)O[C@@H]4CCC(=O)N(C)C4)ncc3c(N)c2F)cnc2c1NCCO2 [Compound 409b, (R)-1-Methyl-6-oxopiperidin-3-yl (8-amino-7-fluoro-6-(8-methyl-2,3-dihydro-1H-pyrido[2,3-b][1,4]oxazin-7-yl)isoquinolin-3-yl)carbamate]",10.32
4,"Cc1c(-c2cc3cc(NC(=O)NC4CN(CC(F)(F)F)C4)ncc3c(N)c2F)cnc2c1NCCO2 [Compound 721, 1-(8-Amino-7-fluoro-6-(8-methyl-2,3-dihydro-1H-pyrido[2,3-b][1,4]oxazin-7-yl)isoquinolin-3-yl)-3-(1-(2,2,2-trifluoroethyl)azetidin-3-yl)urea]",> 10.89
5,"Cc1c(-c2cc3cc(NC(=O)N[C@@H]4CCC[C@@H]4F)ncc3c(N)c2F)cnc2c1NCCO2 [Compound 727a, 1-[8-Amino-7-fluoro-6-(8-methyl-2,3-dihydro-1H-pyrido[2,3-b][1,4]oxazin-7-yl)-3-isoquinolyl]-3-[(1R,2S)-2-fluorocyclopentyl]urea]",> 10.89
6,"Cc1c(-c2cc3cc(NC(=O)N[C@H]4C[C@H](F)C4)ncc3c(N)c2F)cnc2c1NCCC2 [Compound 732a, 1-(8-amino-7-fluoro-6-(4-methyl-5,6,7,8-tetrahydro-1,5-naphthyridin-3-yl)isoquinolin-3-yl)-3-((1r,3r)-3-fluorocyclobutyl)urea]",> 10.89
7,"CO[C@H]1C[C@H](NC(=O)Nc2cc3cc(-c4cnc5c(c4C)NCCO5)c(F)c(N)c3cn2)C1 [Compound 733a, 1-[8-Amino-7-fluoro-6-(8-methyl-2,3-dihydro-1H-pyrido[2,3-b][1,4]oxazin-7-yl)-3-isoquinolyl]-3-(3-methoxycyclobutyl)urea]",> 10.89
8,"Cc1c(-c2cc3cc(NC(=O)N[C@H]4C[C@H]4F)ncc3c(N)c2F)cnc2c1NCCO2 [Compound 734a, 1-[8-Amino-7-fluoro-6-(8-methyl-2,3-dihydro-1H-pyrido[2,3-b][1,4]oxazin-7-yl)-3-isoquinolyl]-3-[(1S,2R)-2-fluorocyclopropyl]urea]",> 10.89
9,"Cc1c(-c2cc3cc(NC(=O)NC4CC5(C4)CN(CC(F)F)C5)ncc3c(N)c2F)cnc2c1NCCC2 [Compound 739, 1-(8-Amino-7-fluoro-6-(4-methyl-5,6,7,8-tetrahydro-1,5-naphthyridin-3-yl)isoquinolin-3-yl)-3-(2-(2,2-difluoroethyl)-2-azaspiro[3.3]heptan-6-yl)urea]",> 10.89
10,"Cc1c(-c2cc3cc(NC(=O)N[C@H]4C[C@]5(CCOC5)C4)ncc3c(N)c2F)cnc2c1NCCC2 [Compound 740a, 1-(8-Amino-7-fluoro-6-(4-methyl-5,6,7,8-tetrahydro-1,5-naphthyridin-3-yl)isoquinolin-3-yl)-3-((2s,4s)-6-oxaspiro[3.4]octan-2-yl)urea]",> 10.89
11,"Cc1c(-c2cc3cc(NC(=O)N[C@H]4C[C@@]5(CCOC5)C4)ncc3c(N)c2F)cnc2c1NCCC2 [Compound 740b, 1-(8-Amino-7-fluoro-6-(4-methyl-5,6,7,8-tetrahydro-1,5-naphthyridin-3-yl)isoquinolin-3-yl)-3-((2r,4r)-6-oxaspiro[3.4]octan-2-yl)urea]",> 10.89
12,"Cc1c(-c2cc3cc(NC(=O)N(C)C)ncc3c(N)c2F)cnc2c1NCCO2 [Compound 742, 3-(8-Amino-7-fluoro-6-(8-methyl-2,3-dihydro-1H-pyrido[2,3-b][1,4]oxazin-7-yl)isoquinolin-3-yl)-1,1-dimethylurea]",8.95
13,"Cc1c(-c2cc3cc(NC(=O)N4CCCC4)ncc3c(N)c2F)cnc2c1NCCO2 [Compound 745, N-(8-Amino-7-fluoro-6-(8-methyl-2,3-dihydro-1H-pyrido[2,3-b][1,4]oxazin-7-yl)isoquinolin-3-yl)pyrrolidine-1-carboxamide]",9.54
14,"Cc1c(-c2cc3cc(NC(=O)NC(C)C)ncc3c(N)c2F)cnc2c1NCCO2 [Compound 746, 1-(8-Amino-7-fluoro-6-(8-methyl-2,3-dihydro-1H-pyrido[2,3-b][1,4]oxazin-7-yl)isoquinolin-3-yl)-3-isopropylurea]",> 10.89
15,"Cc1c(-c2cc3cc(NC(=O)N[C@H]4C[C@@H](F)C4)ncc3c(N)c2F)cnc2c1NCCO2 [Compound 748a, 1-(8-Amino-7-fluoro-6-(8-methyl-2,3-dihydro-1H-pyrido[2,3-b][1,4]oxazin-7-yl)isoquinolin-3-yl)-3-((1s,3s)-3-fluorocyclobutyl)urea]",> 10.89
16,"Cc1c(-c2cc3cc(NC(=O)N[C@H]4C[C@H](F)C4)ncc3c(N)c2F)cnc2c1NCCO2 [Compound 748b, 1-(8-Amino-7-fluoro-6-(8-methyl-2,3-dihydro-1H-pyrido[2,3-b][1,4]oxazin-7-yl)isoquinolin-3-yl)-3-((1r,3r)-3-fluorocyclobutyl)urea]",10.74
17,"Cc1c(N)cncc1-c1cc2cc(NC(=O)NC3CCCC3)ncc2c(N)c1F [Compound 749, 1-(8-Amino-6-(5-amino-4-methylpyridin-3-yl)-7-fluoroisoquinolin-3-yl)-3-cyclopentylurea]",9.99
18,"Cc1c(-c2cc3cc(NC(=O)N(C)C4CCC4)ncc3c(N)c2F)cnc2c1NCCO2 [Compound 752, 3-(8-Amino-7-fluoro-6-(8-methyl-2,3-dihydro-1H-pyrido[2,3-b][1,4]oxazin-7-yl)isoquinolin-3-yl)-1-cyclobutyl-1-methylurea]",9.28
19,"Cc1c(-c2cc3cc(NC(=O)N4CC5(CCOCC5)C4)ncc3c(N)c2F)cnc2c1NCCO2 [Compound 753, N-(8-Amino-7-fluoro-6-(8-methyl-2,3-dihydro-1H-pyrido[2,3-b][1,4]oxazin-7-yl)isoquinolin-3-yl)-7-oxa-2-azaspiro[3.5]nonane-2-carboxamide]",10.41
20,Cc1c(-c2cc3cc(NC(=O)N4CC(C)(O)C4)ncc3c(N)c2F)cnc2c1NCCO2 [Compound 754],9.69
21,"Cc1c(-c2cc3cc(NC(=O)N4CCC4)ncc3c(N)c2F)cnc2c1NCCO2 [Compound 756, N-(8-Amino-7-fluoro-6-(8-methyl-2,3-dihydro-1H-pyrido[2,3-b][1,4]oxazin-7-yl)isoquinolin-3-yl)azetidine-1-carboxamide]",10.70

# Same assay, conditions: HPK1 Ki, ATP 1 mM
row,SMILES,pKi
1,"CO[C@@H]1CC[C@@H](NC(=O)Nc2cc3cc(-c4cnc5c(c4C)NCCO5)c(F)c(N)c3cn2)C1 [Compound 730a, 1-(8-amino-7-fluoro-6-(8-methyl-2,3-dihydro-1H-pyrido[2,3-b][1,4]oxazin-7-yl)isoquinolin-3-yl)-3-((1R,3R)-3-methoxycyclopentyl)urea]",> 10.89
2,"CO[C@H]1CC[C@H](NC(=O)Nc2cc3cc(-c4cnc5c(c4C)NCCO5)c(F)c(N)c3cn2)C1 [Compound 730b, 1-(8-amino-7-fluoro-6-(8-methyl-2,3-dihydro-1H-pyrido[2,3-b][1,4]oxazin-7-yl)isoquinolin-3-yl)-3-((1S,3S)-3-methoxycyclopentyl)urea]",> 10.89
3,"CO[C@H]1CC[C@@H](NC(=O)Nc2cc3cc(-c4cnc5c(c4C)NCCO5)c(F)c(N)c3cn2)C1 [Compound 730c, 1-(8-amino-7-fluoro-6-(8-methyl-2,3-dihydro-1H-pyrido[2,3-b][1,4]oxazin-7-yl)isoquinolin-3-yl)-3-((1R,3S)-3-methoxycyclopentyl)urea]",> 10.89
4,"CO[C@@H]1CC[C@H](NC(=O)Nc2cc3cc(-c4cnc5c(c4C)NCCO5)c(F)c(N)c3cn2)C1 [Compound 730d, 1-(8-amino-7-fluoro-6-(8-methyl-2,3-dihydro-1H-pyrido[2,3-b][1,4]oxazin-7-yl)isoquinolin-3-yl)-3-((1S,3R)-3-methoxycyclopentyl)urea]",> 10.89

# Tested on: primary human pan T cells
# Experiment: Human T-cell IL2 induction assay
# Format: cell-based
# Details: assayed concentration 2.778 μM
# Experimental: Assay Principle: Anti-CD3 and anti-CD28 activates TCR signaling in primary human pan T cells leading to IL-2 promoter induction. Secreted IL-2 in cell culture supernatant is detected by electrochemiluminescence using a capture antibody against IL-2 and an anti-IL-2 antibody labeled with SULFO-tag. Also see www.mesoscale.com for additional electrochemiluminescence technology information.
# Assay Procedure: Incubate primary human pan T cells with varying concentrations of test compounds for 30 minutes in a humidified incubator at 37° C. and 5% CO2. Transfer cells to a plate pre-coated with a fixed concentration of anti-human CD3 (determined separately for each donor lot) and add soluble anti-human CD28 (final concentration=1 μg/ml). Stimulate cells in a humidified incubator at 37° C. and 5% CO2 for 4 hours. Transfer 25 μl of supernatant to a MSD single spot plate pre-coated with an anti-human IL-2 antibody. Incubate MSD plate overnight at 4° C. with gentle shaking. Wash MSD plate 4× with wash buffer. Add SULFO-tagged detection antibody at a 1:50 dilution and incubate at room temperature shaking for 2 hours. Wash MSD plate 4× with wash buffer and add 150 μl 2×MSD read buffer. Read on an MSD instrument. Normalize data to stimulated/untreated controls to calculate % activity at each concentration of compound.
# Instrumentation: • Biomek FX for liquid handling (Beckman Coulter) • MSD SECTOR S 600 (Meso Scale Discovery)
# Exemplary compounds of Formula (I) were tested in the human T-cell IL-2 induction assays.
row,SMILES,% IL-2 increase relative to untreated cells [%]
1,"Cc1c(-c2cc3cc(NC(=O)O[C@H]4CCC[C@@H]4C#N)ncc3c(N)c2F)cnc2c1NCCO2 (single isomer, unassigned) [Compound 482b]",1719
2,"Cc1c(-c2cc3cc(NC(=O)O[C@@H]4CCC(=O)N(C)C4)ncc3c(N)c2F)cnc2c1NCCO2 [Compound 409b, (R)-1-Methyl-6-oxopiperidin-3-yl (8-amino-7-fluoro-6-(8-methyl-2,3-dihydro-1H-pyrido[2,3-b][1,4]oxazin-7-yl)isoquinolin-3-yl)carbamate]",2838
3,"Cc1c(-c2cc3cc(NC(=O)O[C@@H]4CCN(C5COC5)C[C@H]4F)ncc3c(N)c2F)cnc2c1NCCO2 [Compound 445b, (3R,4R)-3-Fluoro-1-(oxetan-3-yl)piperidin-4-yl(8-amino-7-fluoro-6-(8-methyl-2,3-dihydro-1H-pyrido[2,3-b][1,4]oxazin-7-yl)isoquinolin-3-yl)carbamate]",1436

# Same assay, conditions: assayed concentration 5.469 μM
row,SMILES,% IL-2 increase relative to untreated cells [%]
1,"Cc1c(-c2cc3cc(NC(=O)O[C@H]4COC[C@@H]4F)ncc3c(N)c2F)cnc2c1NCCO2 (single isomer, unassigned) [Compound 477b]",1494

# Same assay, conditions: assayed concentration 8.333 μM
row,SMILES,% IL-2 increase relative to untreated cells [%]
1,"Cc1c(-c2cc3cc(NC(=O)O[C@H]4C[C@@H](CC#N)C4)ncc3c(N)c2F)cnc2c1NCCO2 [Compound 536b, (1s,3r)-3-(Cyanomethyl)cyclobutyl (8-amino-7-fluoro-6-(8-methyl-2,3-dihydro-1H-pyrido[2,3-b][1,4]oxazin-7-yl)isoquinolin-3-yl)carbamate]",2280
